Test results reported in PubChem BioAssay (NCI).
Values joined by “and” are separate entries in the source; they are usually repeats but may differ in a detail not shown here. Equal entries are not always repeated.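 Five concentrations, 48 hours, 96-well plates. GI50 marks 50% less growth. TGI: concentration producing complete growth inhibition.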

How the values were obtained:
Test in all cases: inhibition of tumour cell growth, NCI panel, 48 h
KM12 colon = tested on: KM12 colon
SF-539 CNS = tested on: SF-539 CNS
M14 melanoma = tested on: M14 melanoma
PC-3 prostate = tested on: PC-3 prostate
OVCAR-8 ovarian = tested on: OVCAR-8 ovarian
SF-295 CNS = tested on: SF-295 CNS
OVCAR-4 ovarian = tested on: OVCAR-4 ovarian
HCT-15 colon = tested on: HCT-15 colon
IGROV1 ovarian = tested on: IGROV1 ovarian
SR leukemia = tested on: SR leukemia

| Compound | TGI (KM12 colon) [µM] | TGI (SF-539 CNS) | TGI (M14 melanoma) [µM] | TGI (PC-3 prostate) [µM] | TGI (OVCAR-8 ovarian) [µM] | TGI (SF-295 CNS) | TGI (OVCAR-4 ovarian) | TGI (HCT-15 colon) [µM] | TGI (IGROV1 ovarian) [µM] | TGI (SR leukemia) [µM] | GI50 (KM12 colon) [µM] | GI50 (SF-539 CNS) [µM] | GI50 (M14 melanoma) [µM] | GI50 (OVCAR-8 ovarian) [µM] | GI50 (SF-295 CNS) [µM] | GI50 (OVCAR-4 ovarian) [µM] | GI50 (HCT-15 colon) [µM] | GI50 (IGROV1 ovarian) [µM] | GI50 (PC-3 prostate) [µM] |
| --- | --- | --- | --- | --- | --- | --- | --- | --- | --- | --- | --- | --- | --- | --- | --- | --- | --- | --- | --- |
| COc1cc2c(c3oc4c(O)cccc4c(=O)c13)CC(C(C)(O)CCl)O2 (stereo unspecified) | 4.56 | 2.2 µM | 1.27 | 7.76 | 7.94 | 24.1 µM | 8.18 µM | > 27.2 | 8.28 |  |  |  |  |  |  |  |  |  |  |
| CN(C)NC(=O)NC12CC3CC(CC(C3)C1)C2 | > 100 | > 100 µM |  |  | > 100 | > 100 µM | > 100 µM | > 100 | > 100 | > 100 |  |  |  |  |  |  |  |  |  |
| CC(=O)O[C@H]1CSC[C@@H](OC(C)=O)C1[N+](=O)[O-] (stereo partly specified) | > 100 | > 100 µM | 87.7 |  | > 100 | > 100 µM | > 100 µM | 88.9 | > 100 |  |  |  |  |  |  |  |  |  |  |
| C=C1C(C)C2C(Cc3ccccc3)NC(=O)C23C(OC(C)=O)C=CC(C)(O)C(=O)C(C)C/C=C/C3C1O (stereo unspecified) | > 500 | 2.77 µM and 1.22 µM |  |  | > 500 | 30.5 µM and 62.3 µM | 99.8 µM and > 500 µM | > 500 |  | > 289 | 163 | 0.208 | 3.18 | > 471 | 0.418 | 10.4 | > 500 | 0.79 |  |
| CCOC(=O)C(Oc1ccc(OC)c2c1C(=O)CCC2)c1ccccc1 (stereo unspecified) | > 100 | > 100 µM | > 100 |  | > 100 | > 100 µM | > 100 µM | > 100 | > 100 |  |  |  |  |  |  |  |  |  |  |
| C=C(CN1CCN(c2cc(C(F)(F)F)cc(C(F)(F)F)c2)CC1)c1ccc(C(=O)Nc2ccccc2N)cc1 | 21.8 | > 100 µM | > 100 | 31 | > 100 | 62 µM | 9.9 µM | > 100 | 27.3 |  | 3.47 | 18 | 3.76 | 9.55 | 7.29 | 2.53 | 3.96 | 4.2 | 2.92 |
| CC1=C(C(=S)Nc2ccc(Cl)c(C(=O)OC(C)C)c2)SCCO1 | 33.5 | 38.4 µM | 44 | 46.4 | 46.5 | 36.4 µM | 43.5 µM | 44.9 | 33.1 |  |  |  |  |  |  |  |  |  |  |
| CCN(CC)c1ccc(N=Nc2ccc(-c3nc4cccnc4s3)cc2)cc1 | > 100 |  | > 100 |  | > 100 | > 100 µM | > 100 µM |  | > 100 | > 100 |  |  |  |  |  |  |  |  |  |
| NN=C1/C(=C\c2ccccc2)CCC/C1=C/c1ccccc1 | > 100 | > 100 µM | > 100 |  | > 100 | > 100 µM | > 100 µM | > 100 | > 100 |  |  |  |  |  |  |  |  |  |  |
| CN(C(=O)C12C3C4C1C1C2C3C41C#N)C(C)(C)C (stereo unspecified) | > 100 | > 100 µM | > 100 |  | > 100 | > 100 µM | > 100 µM |  | > 100 |  |  |  |  |  |  |  |  |  |  |
| O=C1CCNC/C1=C\c1ccccc1 | 28.9 | 42.3 µM | 27.9 |  | 43.4 | 67.8 µM | 31.3 µM | 50.1 | > 100 | > 100 |  |  |  |  |  |  |  |  |  |
| Nc1ncc(CN2CCCC2)c(-c2ccccc2O)n1 | > 750 | > 750 µM | > 750 |  | > 750 | > 750 µM | > 750 µM | > 750 | > 750 | > 750 |  |  |  |  |  |  |  |  |  |
| CC1=Nc2ccccc2S/C1=C1/C=NC(=NC#N)N=C1C(=O)Nc1cccc(Cl)c1 | > 100 | > 100 µM | > 100 |  | > 100 | > 100 µM | > 100 µM | > 100 | > 100 | > 100 |  |  |  |  |  |  |  |  |  |
| O=C(CC1(O)C(=O)Nc2ccccc21)c1cccc(O)c1 (stereo unspecified) |  | > 100 µM | > 100 |  | > 100 | > 100 µM | > 100 µM | > 100 | > 100 |  |  |  |  |  |  |  |  |  |  |
| N#C/C(=C/c1ccc([N+](=O)[O-])o1)c1ccccc1 | > 100 | > 100 µM | > 100 |  | > 100 | > 100 µM | > 100 µM |  |  | > 100 |  |  |  |  |  |  |  |  |  |
| CC1=C(\C=C/C(C)=C/C=C/C(C)=C/C=C/C=C(C)\C=C\C=C(C)/C=C/C2=C(C)CCCC2(C)C)C(C)(C)CCC1 | > 100 |  | > 100 | > 100 | > 100 | > 100 µM | > 100 µM | > 100 | > 100 |  |  |  |  |  |  |  |  |  |  |
